Patent publication US20260224566A1, “Obicetrapib and Ezetimibe Combination Treatment and Fixed Dose Pharmaceutical Compositions” (NewAmsterdam Pharma B.V., priority 2023, published 2026)

Assays:
[1] = tested on: participants currently receiving high-intensity statin therapy; experiment: ROSE2 Phase 2b clinical trial: LDL-C and other lipid efficacy endpoints; format: in vivo, human
Description: The primary objective of this study is to evaluate the effect of obicetrapib 10 mg+ezetimibe 10 mg combination therapy compared with placebo, when used as an adjunct to high-intensity statin therapy, on LDL-C at Day 84.
The secondary objectives of this study include the following, in hierarchical order: • To evaluate the effect of obicetrapib 10 mg monotherapy compared with placebo, when used as an adjunct to high-intensity statin therapy, on LDL-C at Day 84; • To evaluate the effect of obicetrapib 10 mg+ezetimibe 10 mg combination therapy compared with placebo, when used as an adjunct to high-intensity statin therapy, on ApoB at Day 84; and • To evaluate the effect of obicetrapib 10 mg monotherapy compared with placebo, when used as an adjunct to high-intensity statin therapy, on ApoB at Day 84.
This study will be a placebo-controlled, double-blind, randomized, Phase 2 study to evaluate the efficacy, safety, and tolerability of obicetrapib 10 mg, both in combination with ezetimibe 10 mg and as monotherapy, as an adjunct to high-intensity statin therapy. This study will take place at approximately 20 sites in the United States.
Up to 2 weeks after the Screening Visit, participants will return to the site on Day 1 (Visit 2) and confirm study eligibility before being randomized and beginning treatment. Approximately 114 eligible participants (38 participants per treatment group) will be randomized in a 1:1:1 ratio to 1 of the following treatment groups: • Combination therapy: Obicetrapib 10 mg+ezetimibe 10 mg (administered as one 10 mg obicetrapib tablet and one 10 mg ezetimibe capsule); • Obicetrapib monotherapy: Obicetrapib 10 mg (administered as one 10 mg obicetrapib tablet and 1 placebo capsule); or. • Placebo (administered as 1 placebo tablet and 1 placebo capsule).
During the 12-week Treatment Period, the assigned study drugs will be administered by the participants orally with water, once daily on Day 1 to Day 84 at approximately the same time each morning. Participants will return to the site on Day 28 (±2 days), Day 84 (±2 days), and Day 112 (±2 days) for efficacy, safety, and pharmacokinetic (PK) assessments. Participants, Investigators, the Clinical Research Organization (CRO), and the Sponsor will be blinded to all lipid results from Day 1 (Visit 2) for the first participant until all enrolled participants complete the Day 84 (End of Treatment) visit or are withdrawn from the study, in order to protect blinding to treatment assignment.
The primary efficacy endpoint is the percent change from Day 1 to Day 84 in LDL-C for the obicetrapib 10 mg+ezetimibe 10 mg combination treatment group compared with the placebo group.
The secondary efficacy endpoints include the following, in hierarchical order: • Percent change from Day 1 to Day 84 in LDL-C for the obicetrapib 10 mg monotherapy. • treatment group compared with the placebo group; • Percent change from Day 1 to Day 84 in ApoB for the obicetrapib 10 mg+ezetimibe 10 mg • combination treatment group compared with the placebo group; and • Percent change from Day 1 to Day 84 in ApoB for the obicetrapib 10 mg monotherapy treatment group compared with the placebo group.
The exploratory efficacy endpoints include the following: • Percent change from Day 1 to Day 84 in non-HDL-C, VLDL-C, HDL-C, TG, ApoE, Lp(a), and HDL-ApoE for the obicetrapib 10 mg+ezetimibe 10 mg combination treatment group compared with the placebo group and for the obicetrapib 10 mg monotherapy treatment group compared with the placebo group; and • Proportion of participants at Day 84 that achieve LDL-C <2.6 mmol/L (<100 mg/dL), LDL-C <1.8 mmol/L (<70 mg/dL), and LDL-C <1.3 mmol/L (<50 mg/dL) for the obicetrapib 10 mg+ezetimibe 10 mg combination treatment group compared with the placebo group and for the obicetrapib 10 mg monotherapy treatment group compared with the placebo group. […]

Lp(a) = conditions: TA-8995-06, 12 weeks of treatment; cited from earlier work
[2] = Exploratory Population, 10 mg each drug
[3] = mITT Population, 10 mg each drug

CCOC(=O)N1c2ccc(C(F)(F)F)cc2[C@@H](N(Cc2cc(C(F)(F)F)cc(C(F)(F)F)c2)c2ncc(OCCCC(=O)O)cn2)C[C@H]1CC [obicetrapib, {4-[(2-{[3,5-bis(trifluoromethyl)benzyl] [(2R,4S)-1-(ethoxycarbonyl)-2-ethyl-6-(trifluoromethyl)-1,2,3,4-tetrahydroquinolin-4-yl]amino}pyrimidin-5-yl)oxy]butanoic acid}]
ApoB Change from Baseline to Day 28, Maximum [1, 2]: -1 mg/dL
ApoB Change from Baseline to Day 28, Median [1, 2]: -23.0 mg/dL
ApoB Change from Baseline to Day 28, Minimum [1, 2]: -55 mg/dL
ApoB Change from Baseline to Day 84, Maximum [1, 2]: 19 mg/dL
ApoB Change from Baseline to Day 84, Minimum [1, 2]: -52 mg/dL
ApoB Percent Change from Baseline to Day 28, Maximum [1, 2]: −3.0%
ApoB Percent Change from Baseline to Day 28, Mean [1, 2]: −26.00%
ApoB Percent Change from Baseline to Day 28, Median [1, 2]: −26.00%
ApoB Percent Change from Baseline to Day 28, Minimum [1, 2]: −47.4%
ApoB Percent Change from Baseline to Day 84, Maximum [1, 2]: 27.1%
ApoB Percent Change from Baseline to Day 84, Minimum [1, 2]: −44.8%
LDL-C Change from Baseline to Day 28, Maximum [1, 2]: -11 mg/dL
LDL-C Change from Baseline to Day 28, Mean [1, 2]: -43.0 mg/dL
LDL-C Change from Baseline to Day 28, Median [1, 2]: -45.0 mg/dL
LDL-C Change from Baseline to Day 28, Minimum [1, 2]: -87 mg/dL
LDL-C Change from Baseline to Day 84, Maximum [1, 2]: 24 mg/dL
LDL-C Change from Baseline to Day 84, Minimum [1, 2]: -112 mg/dL
LDL-C Percent Change from Baseline to Day 28, Maximum [1, 2]: −10.4%
LDL-C Percent Change from Baseline to Day 28, Minimum [1, 2]: −82.0%
LDL-C Percent Change from Baseline to Day 84, Maximum [1, 2]: 22.6%
LDL-C Percent Change from Baseline to Day 84, Minimum [1, 2]: −78.4%
Lp(a) Change from Baseline to Day 84, Maximum [1, 2]: 3.0 nmol/L
ApoB at Day 28, Maximum [1, 2]: 110 mg/dL
ApoB at Day 28, Mean [1, 2]: 65.4 mg/dL
ApoB at Day 28, Median [1, 2]: 64.5 mg/dL
ApoB at Day 28, Minimum [1, 2]: 32 mg/dL
LDL-C at Day 28, Maximum [1, 2]: 136 mg/dL
LDL-C at Day 28, Mean [1, 2]: 57.6 mg/dL
LDL-C at Day 28, Median [1, 2]: 51.5 mg/dL
LDL-C at Day 28, Minimum [1, 2]: 16 mg/dL
ApoB at Day 84, Maximum [1, 2]: 123 mg/dL
ApoB at Day 84, Mean [1, 2]: 69.1 mg/dL
ApoB at Day 84, Median [1, 2]: 65.0 mg/dL
ApoB at Day 84, Minimum [1, 2]: 30 mg/dL
LDL-C at Day 84, Maximum [1, 2]: 148 mg/dL
LDL-C at Day 84, Mean [1, 2]: 60.7 mg/dL
LDL-C at Day 84, Median [1, 2]: 55.5 mg/dL
LDL-C at Day 84, Minimum [1, 2]: 21 mg/dL
Lp(a) at Day 84, Maximum [1, 2]: 327.7 nmol/L
Lp(a) at Day 84, Mean [1, 2]: 74.75 nmol/L
Lp(a) at Day 84, Median [1, 2]: 20.85 nmol/L
Lp(a) at Day 84, Minimum [1, 2]: 2.8 nmol/L
median reduction in LDL-C ([1]; ROSE2, obicetrapib 10 mg with or without ezetimibe 10 mg, adjunct to high-intensity statin): 39%
ApoB Change from Baseline to Day 28, Maximum [1, 3]: 50 mg/dL
ApoB Change from Baseline to Day 28, Median [1, 3]: -20.0 mg/dL
ApoB Change from Baseline to Day 28, Minimum [1, 3]: -85 mg/dL
ApoB Change from Baseline to Day 84, Maximum [1, 3]: 67 mg/dL
ApoB Change from Baseline to Day 84, Minimum [1, 3]: -52 mg/dL
ApoB Percent Change from Baseline to Day 28, Maximum [1, 3]: 64.9%
ApoB Percent Change from Baseline to Day 28, Minimum [1, 3]: −62.0%
ApoB Percent Change from Baseline to Day 84, Maximum [1, 3]: 100.0%
ApoB Percent Change from Baseline to Day 84, Mean [1, 3]: −9.50%
ApoB Percent Change from Baseline to Day 84, Minimum [1, 3]: −44.8%
LDL-C Change from Baseline to Day 28, Maximum [1, 3]: 64 mg/dL
LDL-C Change from Baseline to Day 28, Median [1, 3]: -35.0 mg/dL
LDL-C Change from Baseline to Day 28, Minimum [1, 3]: -121 mg/dL
LDL-C Change from Baseline to Day 84, Maximum [1, 3]: 98 mg/dL
LDL-C Change from Baseline to Day 84, Minimum [1, 3]: -112 mg/dL
LDL-C Percent Change from Baseline to Day 28, Maximum [1, 3]: 70.3%
LDL-C Percent Change from Baseline to Day 28, Minimum [1, 3]: −82.0%
LDL-C Percent Change from Baseline to Day 84, Maximum [1, 3]: 161.5%
LDL-C Percent Change from Baseline to Day 84, Minimum [1, 3]: −78.4%
Lp(a) Change from Baseline to Day 84, Maximum [1, 3]: 22.0 nmol/L
Lp(a) Change from Baseline to Day 84, Median [1, 3]: -4.50 nmol/L
ApoB at Day 28, Maximum [1, 3]: 140 mg/dL
ApoB at Day 28, Mean [1, 3]: 73.4 mg/dL
ApoB at Day 28, Median [1, 3]: 66.0 mg/dL
ApoB at Day 28, Minimum [1, 3]: 32 mg/dL
LDL-C at Day 28, Maximum [1, 3]: 169 mg/dL
LDL-C at Day 28, Mean [1, 3]: 70.3 mg/dL
LDL-C at Day 28, Median [1, 3]: 56.0 mg/dL
LDL-C at Day 28, Minimum [1, 3]: 16 mg/dL
ApoB at Day 84, Maximum [1, 3]: 147 mg/dL
ApoB at Day 84, Mean [1, 3]: 82.4 mg/dL
ApoB at Day 84, Median [1, 3]: 72.0 mg/dL
ApoB at Day 84, Minimum [1, 3]: 30 mg/dL
LDL-C at Day 84, Maximum [1, 3]: 196 mg/dL
LDL-C at Day 84, Mean [1, 3]: 82.7 mg/dL
LDL-C at Day 84, Median [1, 3]: 65.0 mg/dL
LDL-C at Day 84, Minimum [1, 3]: 21 mg/dL
Lp(a) at Day 84, Maximum [1, 3]: 327.7 nmol/L
Lp(a) at Day 84, Mean [1, 3]: 77.96 nmol/L
Lp(a) at Day 84, Median [1, 3]: 26.25 nmol/L
Lp(a) at Day 84, Minimum [1, 3]: 2.8 nmol/L
Lp(a) levels (Lp(a)): statistically significant reduction
